Values quoted from earlier work as cited in US20240188563A1, “CATHETER LOCK SOLUTIONS INCORPORATING NITRIC OXIDE RELEASING LIPOSOMES” (Becton, Dickinson and Company, priority 2022, published 2024).

Test system: platelets
Conditions: extracorporeal circuit

Compound: CC(=O)N[C@H](C(=O)O)C(C)(C)SN=O [SNAP only, S-nitroso-N-acetyl penicillamine]
- Platelet count after 4 h (% of initial): vs. 50% (SNAP only)
